A value given as a limit tells only on which side of the number the result lay.

For the compound `CN(C)C1CCN(c2cc3ccc(Br)cc3c(=O)[nH]2)CC1`, the melting point (usually the temperature, or range, at which the solid turns liquid) is 227 to 228 °C.

With `O=C(CCl)c1ncccn1`, the melting point fell in the range of 73 to 80 °C.

For `COC(=O)c1nc2ccc(Cl)cc2n1Cc1ccccc1`, the melting point lay in the range of 184 to 186 °C.

In the case of `COC(Cc1c(Br)cc(Br)c(N)c1Br)C(=O)O` (stereo not drawn), the melting point is 173 to 175 °C.

`OC(CNCCNc1cccc2cn[nH]c12)COc1ccccc1` (stereo not drawn) returned a melting point of 117 to 119 °C.

As to `CC(=O)c1ccc2cc(O)ccc2c1O`, the melting point lay within 195 to 200 °C.

`Cc1cc2c(cc1C(=O)c1ccccc1Cl)OC(C(=O)O)O2` (stereo not drawn) yielded a melting point of 133 to 135 °C.

Compound `Cn1c(=O)c2c(N)ncnc2n(C)c1=O` had a melting point above 300 °C.

The compound `CCCCCCCCCCCCOCC(CO)(CO)COCCCCCCCCCCCC` registered a melting point of 54 to 55 °C.

As for `COc1ccc(CSc2nnc(-c3ccc4[nH]ncc4c3)o2)cc1C(F)(F)F`, the melting point lay within 136 to 137 °C.

`Fc1ccc(-c2cnc3nc(C(F)(F)F)cnn23)cc1-c1ccccn1` had a melting point of 128 to 131 °C.

`CCOC(=O)C1=C(COCCNc2nccc(=O)[nH]2)NC(C)=C(C(=O)OC)C1c1ccccc1Cl` (stereo not drawn) came in with a melting point of 148 to 150 °C.

With `FC(F)(c1ccccc1)C(F)(F)c1ccccc1Br`, the melting point lay within 54 to 55 °C.

The compound `CCCCCCCCCC=CC(=O)C1C(=O)C=C(C)OC1=O` (stereo not drawn) yielded a melting point of 112 to 113 °C.

Compound `Cc1cc(C(O)(C(F)(F)F)C(F)(F)F)cc(C)c1NCCN` registered a melting point of 158 to 161 °C.

Compound `Cc1cc2nc(C=Cc3ccc(C(=O)O)cc3)oc2cc1C` had a melting point above 300 °C.

With `OCc1cc(N2CCCC2)ncn1`, the melting point is 136 to 139 °C.

With `CN(C)C(=O)CCC(=O)NC1CCC(CCN2CCN(c3nccc4c3OCC4)CC2)CC1` (stereo not drawn), the melting point came to 178 °C.

Regarding `COC(=O)c1cncc(SCc2ccc(OC)cc2)c1`, the melting point is 72 to 74 °C.

Consider `O=C(O)C(CC(=O)N1CCOCC1)Oc1ccccc1` (stereo not drawn), for which the melting point was 150 to 151 °C.

As to `COC(=O)/C=C/c1ccc(C)cc1Br`, the melting point is 70 °C.

Consider `N#Cc1cc(N2C(=O)C3=C(CCCC3)C2=O)c(F)cc1Cl`, for which the melting point was in the range of 160 to 162 °C.

Compound `Brc1cccc(OCc2ccc3ccccc3c2)n1` registered a melting point of 67 to 69 °C.

As for `CCCCc1nc2c(N)nc(C)c(C)c2n1CCCCNC(=O)Nc1ccccc1`, the melting point fell in the range of 196 to 197 °C.

The compound `O=C(NCc1ccccc1)C1=C(C(=O)Nc2ccc(Cl)cc2F)CCCC1` registered a melting point of 121 to 123 °C.

Take `CC(C)n1nc(-c2c(OCc3ccccn3)nc(N)nc2-c2ccccc2)ccc1=O`: the melting point was 177 to 178 °C.

Take `Nc1ccc2[nH]c(-c3ccccc3)cc2c1`: the melting point is 220 °C.

Compound `CS(=O)(=O)c1ccc(C(=O)c2cc(Cl)ccc2N)cc1` registered a melting point of 176 to 177 °C.

In turn, `CC(C(O)c1cc(F)c(OCc2ccccc2)c(F)c1)N1CCC(O)(c2ccc(C(F)(F)F)cc2)CC1` (stereo not drawn) displayed a melting point of 201 to 202 °C.

Regarding `COc1ccc(NC(=O)c2c(Cl)cccc2Cl)cc1OC1CCCC1`, the melting point was 184 to 185 °C.

`c1ccc(Sc2ccc3[nH]ccc3c2)cc1` showed a melting point of 97 to 99 °C.

With `CC(=O)Nc1ccc(OCc2nc3ccc(F)cc3s2)cc1`, the melting point lay within 204 to 205 °C.

`COc1ccc2c(c1)c(-c1cc3nccnc3[nH]1)cn2CCO` came in with a melting point of 270 to 273 °C.

The compound `O=C(/C=C/c1ccc(O)c(OC(F)(F)F)c1)/C=C/c1ccc(O)c(OC(F)(F)F)c1` registered a melting point of 103 to 105 °C.

Turning to `CCCCC1CCc2cc(C(=O)C(C)C)cc3c(CCN4CCN(c5cc(C)ccn5)CC4)c(C)n1c23` (stereo not drawn), the melting point came to 150 °C.

For the compound `CCCCCC(O)CCCC(Cc1ccc(C=CC(=O)O)cc1)C(C)=O` (stereo not drawn), the melting point lay in the range of 87 to 92 °C.

For `O=C(NCCCCC1CCSS1)N1CCCC1` (stereo not drawn), the melting point was in the range of 91 to 93 °C.

`O=C1CNC(c2ccc(Cl)cc2)=NN1` had a melting point above 260 °C.
